Where two headings read alike, the source gives them in different places. Where a SMILES comes first, the peptide text is derived from it. [ ]: non-standard residue; d: D form.
Test system: 8-day Krocker sarcoma (S-180)
Settings: for Necrotic reaction shown after 24 h, number of animals / Death of animals / Inhibition of the tumor growth, % of the control: intravenous; for Necrotic reaction shown after 24 h, number of animals: mice with 8-day sarcoma S-180, 24 h; for Death of animals / Necrosis caused by constituent components of the glycopeptides: mice with sarcoma S-180; for Inhibition of the tumor growth, % of the control: tumor volume or weight after 4-5 days
[1] = single intravenous dose 100 mg/kg

| Molecule | Necrotic reaction shown after 24 h, number of animals (dose 50 mg/kg) | Inhibition of the tumor growth, % of the control (dose 50 mg/kg) | Necrotic reaction shown after 24 h, number of animals (dose 100 mg/kg) | Death of animals (dose 100 mg/kg) | Inhibition of the tumor growth, % of the control (dose 100 mg/kg) | Necrotic reaction shown after 24 h, number of animals (dose 250 mg/kg) | Death of animals (dose 250 mg/kg) | Inhibition of the tumor growth, % of the control (dose 250 mg/kg) | Necrosis caused by constituent components of the glycopeptides | other results |
| --- | --- | --- | --- | --- | --- | --- | --- | --- | --- | --- |
| CC(=O)NC1C(OC2C(CO)OC(O)C(NC(C)=O)C2OC(C)C(=O)NC(C)C(=O)NC(CCC(=O)O)C(N)=O)OC(CO)C(O)C1O [Compound II, N-acetylglucosaminyl/1→4/N-acetylmuramyl-alanyl-D-isoglutamine] | 8/10 | 12 % of the control | 4/5 | 0 | 70 % of the control |  |  |  |  | Death of animals (dose 50 mg/kg): 0; Hemopoiesis [1]: not inhibited; Number of leukocytes [1]: substantially increased; Signs of toxicity [1]: no signs of toxicity are noticed; Test animals with selective necrosis of the tumor tissue covering substantially the entire tumor (single intravenous dose 100 mg/kg, 24 hours after administration): four out of five; Inhibition of the growth of the malignant tumor as compared to the control animals (single intravenous dose 100 mg/kg, after 5 days): 70% |
| CC(=O)NC1C(OC2C(CO)OC(O)C(NC(C)=O)C2OC(C)C(=O)NC(C)C(=O)NC(CCC(=O)O)C(=O)O)OC(CO)C(O)C1O [III, N-acetylglucosaminyl/1→4/N-acetylmuramyl-alanyl-D-glutamic acid] | 4/10 |  | 3/5 |  |  |  |  |  |  |  |
| CC(=O)N[C@H]1C(O[C@H]2[C@H](O[C@H](C)C(=O)O)[C@@H](NC(C)=O)C(O[C@H]3[C@H](O)[C@@H](NC(C)=O)C(O[C@H]4[C@H](O[C@H](C)C(=O)O)[C@@H](NC(C)=O)C(O)O[C@@H]4CO)O[C@@H]3CO)O[C@@H]2CO)O[C@H](CO)[C@@H](O)[C@@H]1O (stereo partly shown) [IX, N-acetylglucosaminyl /1→4/-N-acetylmuramyl/1→4/N-acetylglucosaminyl/1→4/N- acetylmuramic acid] |  |  |  |  |  | 0/10 | 0 | 0 % of the control | not caused |  |
| CC(=O)N[C@H]1C(O)O[C@H](CO)[C@@H](O)[C@@H]1O (stereo partly shown) [VI, N-acetylglucosamine] |  |  |  |  |  | 0.5 | 0 | 0 % of the control | not caused |  |
| CC(=O)N[C@H]1C(O)O[C@H](CO)[C@@H](O)[C@@H]1O[C@H](C)C(=O)O (stereo partly shown) [VII, N-acetylmuramic acid] |  |  | 0/8 | 0 | 37 % of the control | 0/8 | 25 | 52 % of the control | not caused |  |
| CC(=O)N[C@H]1C(O[C@H]2[C@H](O[C@H](C)C(=O)O)[C@@H](NC(C)=O)C(O)O[C@@H]2CO)O[C@H](CO)[C@@H](O)[C@@H]1O (stereo partly shown) [VIII, N-acetylglucosaminyl/1→4/N-acetylmuramic acid] |  |  | 0/10 | 0 | 0 % of the control | 0/10 | 0 | 0 % of the control | not caused |  |
| C[C@H](N)C(=O)N[C@H](CCC(=O)O)C(N)=O [X, Ala-D-Glu-NH2] (H-Ala-[dE]-NH2) |  |  | 0/10 | 0 | +28 % of the control |  |  |  | not caused |  |
| C[C@H](N)C(=O)N[C@H](CCC(=O)O)C(=O)O [XI, Ala-D-Glu] (H-Ala-[dE]-OH) |  |  | 0/8 | 0 | 37.3 % of the control |  |  |  | not caused |  |
| /1→4/-bis-[N-acetylglucosaminyl/1→4/N-acetylmuramyl-alanyl-D- isoglutamine] [V] | 3/5 | 66 % of the control |  |  |  |  |  |  |  | Death of animals (dose 50 mg/kg): 0 |
| Amide of N^ε [Alanyl-D-glutamyl-D-iso-asparaginyl]-lysyl-D-alanine [XII] |  |  |  |  |  | 0/5 |  | 0 % of the control |  |  |
| N-acetyl-glucosaminyl/1→4/N-acetylmuramylalanine [Compound I] | 2/5 | 17 % of the control | 3/5 | 0 | 19 % of the control |  |  |  |  | Death of animals (dose 50 mg/kg): 0 |
| amide of N^ε -[N-acetylglucosaminyl/1→4/N-acetylmuramyl-alanyl-D-glutamyl-D-iso- asparaginyl]-lysyl-D-alanine [IV] | 3/5 | 23 % of the control | 3/5 |  | 41 % of the control |  |  |  |  |  |

Source: patent US4395399A, “Glycopeptides and method for preparing same” (Institut Bioorganicheskoi Khimii Imeni M.M. Shemyakina …, priority 1977, dated 1983)
